The target in one test is T1, human P2X2/3 receptor (Homo sapiens, UniProt P56373+Q9UBL9).
T1 construct: expressed in transfected cells; host or cells: CHO-K1
T1 sequence (Q9UBL9 1-471): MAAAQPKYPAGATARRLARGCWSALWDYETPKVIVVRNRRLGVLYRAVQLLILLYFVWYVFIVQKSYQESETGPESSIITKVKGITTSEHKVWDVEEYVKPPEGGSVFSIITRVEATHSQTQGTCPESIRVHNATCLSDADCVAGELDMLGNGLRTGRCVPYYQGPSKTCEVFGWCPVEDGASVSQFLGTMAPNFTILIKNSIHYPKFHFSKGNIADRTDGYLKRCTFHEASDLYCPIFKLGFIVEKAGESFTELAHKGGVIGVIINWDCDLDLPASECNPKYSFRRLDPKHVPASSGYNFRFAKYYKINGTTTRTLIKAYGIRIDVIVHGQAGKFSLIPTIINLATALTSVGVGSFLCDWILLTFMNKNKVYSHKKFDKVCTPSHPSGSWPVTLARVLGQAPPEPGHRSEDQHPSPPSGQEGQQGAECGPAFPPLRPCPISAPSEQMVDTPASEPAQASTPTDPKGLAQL
T1 sequence (P56373 1-397): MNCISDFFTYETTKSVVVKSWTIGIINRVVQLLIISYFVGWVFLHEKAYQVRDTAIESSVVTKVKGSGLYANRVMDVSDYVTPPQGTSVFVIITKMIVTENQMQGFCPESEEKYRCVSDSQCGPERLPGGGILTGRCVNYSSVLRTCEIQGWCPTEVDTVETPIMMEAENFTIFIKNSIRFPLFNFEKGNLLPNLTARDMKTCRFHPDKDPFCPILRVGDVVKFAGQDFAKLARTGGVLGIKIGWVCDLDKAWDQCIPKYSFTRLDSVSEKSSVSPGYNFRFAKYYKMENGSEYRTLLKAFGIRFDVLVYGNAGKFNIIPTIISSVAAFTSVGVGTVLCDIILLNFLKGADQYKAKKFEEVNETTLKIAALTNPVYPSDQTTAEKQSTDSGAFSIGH
Kind of test: P2X3/P2X2/3 FLIPR (Fluorometric Imaging Plate Reader) Assay, P2X2/3. Type of test: cell-based. The settings on record: CHO-K1 cells transfected with human P2X2/3; agonist α,β-meATP 5 μM; Table 1; read-out: P2X2/3 pKi (converted). A digest of the protocol: (§1)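 CHO-K1 cells expressing rat P2X3 or human P2X2/3 were loaded with Fluo-3 AM (2 μM, 1 h, 37 °C) and preincubated with compound for 20 min at room temperature. Calcium influx was evoked by α,β-meATP (1 μM for P2X3, 5 μM for P2X2/3) and peak fluorescence was fitted by nonlinear regression to inhibition curves.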

In a further test the target is T2, rat P2X3 receptor (Rattus norvegicus, UniProt P49654).
T2 construct: expressed in transfected cells; host or cells: CHO-K1
T2 sequence (P49654 1-397): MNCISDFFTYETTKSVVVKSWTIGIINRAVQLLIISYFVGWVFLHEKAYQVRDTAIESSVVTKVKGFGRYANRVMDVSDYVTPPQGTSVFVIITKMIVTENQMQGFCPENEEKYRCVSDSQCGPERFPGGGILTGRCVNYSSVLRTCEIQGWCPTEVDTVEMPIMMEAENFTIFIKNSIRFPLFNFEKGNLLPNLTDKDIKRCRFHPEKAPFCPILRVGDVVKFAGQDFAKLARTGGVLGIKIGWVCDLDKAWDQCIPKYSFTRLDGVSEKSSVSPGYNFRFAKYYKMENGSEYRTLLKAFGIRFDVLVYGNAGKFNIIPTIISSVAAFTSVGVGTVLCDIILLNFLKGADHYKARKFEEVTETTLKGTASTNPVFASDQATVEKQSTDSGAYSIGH
Kind of test: P2X3/P2X2/3 FLIPR (Fluorometric Imaging Plate Reader) Assay, P2X3. In kind it is cell-based. The settings on record: for Ki: CHO-K1 cells transfected with rat P2X3, agonist α,β-meATP 1 μM, Table 1, read-out: P2X3 pKi (converted). The method, boiled down: as §1

Consider `Cc1ccc(-c2cc(C(=O)NC(C)c3cnccn3)cc(-n3nncc3C)c2)cc1` (stereo not drawn) [Compound 7, 4′-Methyl-5-(5-methyl-[1,2,3]triazol-1-yl)-biphenyl-3-carboxylic acid (1-pyrazin-2-yl-ethyl)-amide], for which the Ki at human P2X2/3 receptor was 191 nM; at rat P2X3 receptor it was 3.72 nM.

On to `Cc1ccc(-c2cc(C(=O)N[C@@H](C)CO)cc(-n3ncnc3C(C)C)c2)c(F)c1` [Compound 35, 2′-Fluoro-5-(5-isopropyl-[1,2,4]triazol-1-yl)-4′-methyl-biphenyl-3-carboxylic acid ((S)-2-hydroxy-1-methyl-ethyl)-amide], for which the figures for the Ki at human P2X2/3 receptor and at rat P2X3 receptor were 417 nM and 1.7 nM, respectively. Also, the IC50 at rat P2X3 receptor (text b666, CHO-K1 cells, α,β-meATP 1 μM, read-out: pIC50 for the P2X3 receptor (converted)) is about 1.7 nM.

`Cc1ccc(-c2cc(-n3ncnc3C(F)(F)F)cc(C(=O)NCc3ncc(C)cn3)c2F)nc1` [Compound 177, 2-Fluoro-3-(5-methyl-pyridin-2-yl)-N-(5-methyl-pyrimidin-2-ylmethyl)-5-(5-trifluoromethyl-[1,2,4]triazol-1-yl)-benzamide]: the Ki on human P2X2/3 receptor was 151 nM; on rat P2X3 receptor, 24 nM.

Consider `Cc1cnc(CNC(=O)c2cc(-c3ccc(Cl)cn3)cc(-n3ncnc3CF)c2)cn1` [Compound 92, 3-(5-Chloro-pyridin-2-yl)-5-(5-fluoromethyl-[1,2,4]triazol-1-yl)-N-(5-methyl-pyrazin-2-ylmethyl)-benzamide], for which the Ki on human P2X2/3 receptor was 2570 nM; at rat P2X3 receptor, 21.4 nM.

As for `Cc1ccc(-c2cc(C(=O)NCc3cnc(C)cn3)cc(-n3ncnc3C(F)(F)F)c2)cc1` [Compound 67, 4′-Methyl-5-(5-trifluoromethyl-[1,2,4]triazol-1-yl)-biphenyl-3-carboxylic acid (5-methyl-pyrazin-2-ylmethyl)-amide], the figures for the Ki at human P2X2/3 receptor and at rat P2X3 receptor were 49 nM and 6.31 nM, respectively.

On to `Cc1ccc(-c2cc(C(=O)NC(C)c3cnccn3)cc(-n3ncnc3C(C)N(C)C)c2)cc1` (stereo not drawn) [Compound 61, 5-[5-(1-Dimethylamino-ethyl)-[1,2,4]triazol-1-yl]-4′-methyl-biphenyl-3-carboxylic acid (1-pyrazin-2-yl-ethyl)-amide], for which the Ki at human P2X2/3 receptor was 51.3 nM; on rat P2X3 receptor, 5.25 nM.

With `Cc1ccc(-c2cc(C(=O)NC(C)c3cnccn3)cc(-n3cnnc3C(C)C)c2)cc1` (stereo not drawn) [Compound 19], the Ki is 1290 nM on human P2X2/3 receptor and 5.89 nM on rat P2X3 receptor.

Take `Cc1ccc(-c2cc(C(=O)N[C@@H](C)CO)cc(-n3ncnc3C(C)(F)F)c2)nc1` [Compound 71, 3-[5-(1,1-Difluoro-ethyl)-[1,2,4]triazol-1-yl]-N-((S)-2-hydroxy-1-methyl-ethyl)-5-(5-methyl-pyridin-2-yl)-benzamide]: the Ki on human P2X2/3 receptor is 2290 nM; at rat P2X3 receptor, 2.82 nM.

Take `COC(C)c1ncnn1-c1cc(C(=O)N[C@@H](C)CO)cc(-c2ccc(C)cc2)c1` (stereo partly drawn) [Compound 47, 5-[5-(1-Methoxy-ethyl)-[1,2,4]triazol-1-yl]-4′-methyl-biphenyl-3-carboxylic acid ((S)-2-hydroxy-1-methyl-ethyl)-amide]: the Ki on human P2X2/3 receptor is 2040 nM; at rat P2X3 receptor it was 4.68 nM.

For the compound `Cc1ccc(-c2cc(C(=O)NCc3cnc(C)cn3)cc(-n3ncnc3C(C)C)c2)nc1` [Compound 132, 3-(5-Isopropyl-[1,2,4]triazol-1-yl)-N-(5-methyl-pyrazin-2-ylmethyl)-5-(5-methyl-pyridin-2-yl)-benzamide], the values for the Ki on human P2X2/3 receptor and at rat P2X3 receptor were 38.9 nM and 3.31 nM, respectively.

As to `Cc1ccc(-c2cc(C(=O)NC3CC3)cc(-n3ncnc3C(C)N(C)C)c2)nc1` (stereo not drawn) [Compound 139, N-Cyclopropyl-3-[5-(1-dimethylamino-ethyl)-[1,2,4]triazol-1-yl]-5-(5-methyl-pyridin-2-yl)-benzamide], the Ki was 1700 nM at human P2X2/3 receptor and 27.5 nM on rat P2X3 receptor.

For the compound `Cc1ccc(-c2cc(C(=O)NC(C)c3cnccn3)cc(-n3ncnc3C3CCC3)c2)nc1` (stereo not drawn) [Compound 87, 3-(5-Cyclobutyl-[1,2,4]triazol-1-yl)-5-(5-methyl-pyridin-2-yl)-N-(1-pyrazin-2-yl-ethyl)-benzamide], the figures for the Ki on human P2X2/3 receptor and at rat P2X3 receptor were 35.5 nM and 2.63 nM, respectively.

Consider `CCCc1ncnn1-c1cc(C(=O)NC(C)CN(C)C)cc(-c2ccc(C)cc2)c1` (stereo not drawn) [Compound 63, 4′-Methyl-5-(5-propyl-[1,2,4]triazol-1-yl)-biphenyl-3-carboxylic acid (2-dimethylamino-1-methyl-ethyl)-amide], for which the figures for the Ki at human P2X2/3 receptor and on rat P2X3 receptor were 10000 nM and 339 nM, respectively.

For the compound `CCCc1ncnn1-c1cc(C(=O)N[C@@H](C)CO)cc(-c2ccc(Cl)cn2)c1` [Compound 111, 3-(5-Chloro-pyridin-2-yl)-N-((S)-2-hydroxy-1-methyl-ethyl)-5-(5-propyl-[1,2,4]triazol-1-yl)-benzamide], the Ki on human P2X2/3 receptor was 4900 nM; at rat P2X3 receptor it was 18.2 nM.

Take `Cc1ccc(-c2cc(C(=O)NC(C)c3cnccn3)cc(-n3ncnc3C(C)(F)F)c2)nc1` (stereo not drawn) [Compound 70, 3-[5-(1,1-Difluoro-ethyl)-[1,2,4]triazol-1-yl]-5-(5-methyl-pyridin-2-yl)-N-(1-pyrazin-2-yl-ethyl)-benzamide]: the figures for the Ki at human P2X2/3 receptor and on rat P2X3 receptor were 42.7 nM and 1.91 nM, respectively.

`Cc1ccc(-c2cc(C(=O)NCc3cnc(C)cn3)cc(-n3ncnc3CC(F)F)c2)nc1` [Compound 145, 3-[5-(2,2-Difluoro-ethyl)-[1,2,4]triazol-1-yl]-N-(5-methyl-pyrazin-2-ylmethyl)-5-(5-methyl-pyridin-2-yl)-benzamide]: the values for the Ki on human P2X2/3 receptor and at rat P2X3 receptor were 107 nM and 3.31 nM, respectively.

Consider `Cc1ccc(-c2cc(C(=O)NCc3cnc(C)cn3)cc(-n3ncnc3C(C)C)c2)cc1` [Compound 136, 5-(5-Isopropyl-[1,2,4]triazol-1-yl)-4′-methyl-biphenyl-3-carboxylic acid (5-methyl-pyrazin-2-ylmethyl)-amide], for which the values for the Ki at human P2X2/3 receptor and on rat P2X3 receptor were 20.9 nM and 5.37 nM, respectively.

As to `Cc1ccc(-c2cc(C(=O)NCc3cnc(C)cn3)cc(-n3ncnc3C3CN(C)C3)c2)nc1` [Compound 157, 3-[5-(1-Methyl-azetidin-3-yl)-[1,2,4]triazol-1-yl]-N-(5-methyl-pyrazin-2-ylmethyl)-5-(5-methyl-pyridin-2-yl)-benzamide], the figures for the Ki on human P2X2/3 receptor and on rat P2X3 receptor were 10000 nM and 676 nM, respectively.

In the case of `Cc1ccc(-c2cc(-n3ncnc3C(F)(F)F)cc(C(=O)NC(C)c3cnccn3)c2F)nc1` (stereo not drawn) [Compound 168, 2-Fluoro-3-(5-methyl-pyridin-2-yl)-N-(1-pyrazin-2-yl-ethyl)-5-(5-trifluoromethyl-[1,2,4]triazol-1-yl)-benzamide], the Ki is 2690 nM at human P2X2/3 receptor and 13.5 nM at rat P2X3 receptor.

On to `COCc1ncnn1-c1cc(C(=O)N[C@@H](C)CO)cc(-c2ccc(C)cc2)c1` [Compound 45, 5-(5-Methoxymethyl-[1,2,4]triazol-1-yl)-4′-methyl-biphenyl-3-carboxylic acid ((S)-2-hydroxy-1-methyl-ethyl)-amide], for which the Ki at human P2X2/3 receptor was 3160 nM; at rat P2X3 receptor, 12.9 nM.

On to `Cc1ccc(-c2cc(C(=O)N[C@@H](C)CO)cc(-c3ncnn3C(C)C)c2)cc1` [Compound 54, 5-(2-Isopropyl-2H-[1,2,4]triazol-3-yl)-4′-methyl-biphenyl-3-carboxylic acid (2-hydroxy-1-methyl-ethyl)-amide], for which the Ki is 2450 nM at human P2X2/3 receptor and 21.4 nM on rat P2X3 receptor.

As to `Cc1ccc(-c2cc(C(=O)NCc3cnc(C)cn3)cc(-n3ncnc3C)c2)nc1` [Compound 101, N-(5-Methyl-pyrazin-2-ylmethyl)-3-(5-methyl-pyridin-2-yl)-5-(5-methyl-[1,2,4]triazol-1-yl)-benzamide], the Ki at human P2X2/3 receptor is 1150 nM; at rat P2X3 receptor it was 7.94 nM.

Source of the values: patent US8440708B2, “Triazole-substituted arylamides as P2X3 and P2X2/3 antagonists” (Roche Palo Alto LLC, priority 2007, dated 2013).
